Results from patent publication US4528287A, “6-Fluoro-1, 4-dihydro-4-oxo-7-substituted piperazinylquinoline-3-carboxylic acids and the method for preparing the same” (priority 1983, dated 1985).
Values after ≈ are worked out from the molar mass of the structure shown. Like-named read-outs stand apart in the source and are kept apart here.

Assays:
[1] = system: Enterobacter aerogenes ATCC13048; experiment: MIC, twofold agar dilution; format: cell-based; conditions: Klebsiella aerogenes, Gram -, 10^6 cells/ml, 18 hrs, 37° C., read-out: Minimum inhibitory concentration (MIC)
Experimental: (§1) Minimum inhibitory concentrations (MIC) were determined by the twofold agar dilution method (Chemotherapy, 29(1), 76(1981)). Overnight cultures in Mueller-Hinton broth were suspended by buffered saline gelatine. One loopful of the bacterial suspension (10^6 or 10^8 colony-forming units/ml) was incubated onto the test compound-containing plates. The plates were incubated for 18 hrs. at 37° C. The MIC was the lowest concentration of the drug that inhibited visible growth.

[2] = system: Pseudomonas aeruginosa PAO7; experiment: MIC, twofold agar dilution; format: cell-based; conditions: Gram -, 10^6 cells/ml, 18 hrs, 37° C., read-out: Minimum inhibitory concentration (MIC)
Experimental: as §1

[3] = system: Staphylococcus aureus Terajima; experiment: MIC, twofold agar dilution; format: cell-based; conditions: Gram +, 10^6 cells/ml, 18 hrs, 37° C., read-out: Minimum inhibitory concentration (MIC)
Experimental: as §1

[4] = system: Escherichia coli NIHJ-JC-2; experiment: MIC, twofold agar dilution; format: cell-based; conditions: NIHJJC2, Gram -, 10^6 cells/ml, 18 hrs, 37° C., read-out: Minimum inhibitory concentration (MIC)
Experimental: as §1

[5] = system: Staphylococcus aureus FAD208PJC-1; experiment: MIC, twofold agar dilution; format: cell-based; conditions: FAD208PJC1, Gram +, 10^6 cells/ml, 18 hrs, 37° C., read-out: Minimum inhibitory concentration (MIC)
Experimental: as §1

Proteus vulgalis OX-19 = experiment: MIC, twofold agar dilution; format: cell-based; conditions: Gram -; 10^6 cells/ml; 18 hrs, 37° C.; read-out: Minimum inhibitory concentration (MIC)
Experimental: as §1

[6] = system: Klebsiella pneumoniae PCI-602; experiment: MIC, twofold agar dilution; format: cell-based; conditions: PCI602, Gram -, 10^6 cells/ml, 18 hrs, 37° C., read-out: Minimum inhibitory concentration (MIC)
Experimental: as §1

Proteus rettgeri IFO3850 = experiment: MIC, twofold agar dilution; format: cell-based; conditions: Providencia rettgeri, Gram -, 10^6 cells/ml, 18 hrs, 37° C., read-out: Minimum inhibitory concentration (MIC)
Experimental: as §1

[7] = system: Enterobacter cloaceas 963; experiment: MIC, twofold agar dilution; format: cell-based; conditions: Gram -, 10^6 cells/ml, 18 hrs, 37° C., read-out: Minimum inhibitory concentration (MIC)
Experimental: as §1

Proteus morganii IFO3848 = experiment: MIC, twofold agar dilution; format: cell-based; conditions: Morganella morganii, Gram -, 10^6 cells/ml, 18 hrs, 37° C., read-out: Minimum inhibitory concentration (MIC)
Experimental: as §1

[8] = system: Pseudomonas aeruginosa ATCC9027; experiment: MIC, twofold agar dilution; format: cell-based; conditions: Gram -, 10^6 cells/ml, 18 hrs, 37° C., read-out: Minimum inhibitory concentration (MIC)
Experimental: as §1

[9] = system: Pseudomonas aeruginosa IFO3445; experiment: MIC, twofold agar dilution; format: cell-based; conditions: Gram -, 10^6 cells/ml, 18 hrs, 37° C., read-out: Minimum inhibitory concentration (MIC)
Experimental: as §1

[10] = system: Salmonella enteritidis G14; experiment: MIC, twofold agar dilution; format: cell-based; conditions: Salmonella enterica, Gram -, 10^6 cells/ml, 18 hrs, 37° C., read-out: Minimum inhibitory concentration (MIC)
Experimental: as §1

[11] = system: Pseudomonas aeruginosa NCTC10490; experiment: MIC, twofold agar dilution; format: cell-based; conditions: Gram -, 10^6 cells/ml, 18 hrs, 37° C., read-out: Minimum inhibitory concentration (MIC)
Experimental: as §1

[12] = system: Micrococcus luteus ATCC9341; experiment: MIC, twofold agar dilution; format: cell-based; conditions: Gram +, 10^6 cells/ml, 18 hrs, 37° C., read-out: Minimum inhibitory concentration (MIC)
Experimental: as §1

[13] = system: Staphylococcus aureus MS-353; experiment: MIC, twofold agar dilution; format: cell-based; conditions: MS353, Gram +, 10^6 cells/ml, 18 hrs, 37° C., read-out: Minimum inhibitory concentration (MIC)
Experimental: as §1

[14] = system: Salmonella schottmulleri 0006; experiment: MIC, twofold agar dilution; format: cell-based; conditions: Gram -, 10^6 cells/ml, 18 hrs, 37° C., read-out: Minimum inhibitory concentration (MIC)
Experimental: as §1

[15] = system: Salmonella paratyphi 1015; experiment: MIC, twofold agar dilution; format: cell-based; conditions: Salmonella enterica, 18 h, read-out: Minimum inhibitory concentration (MIC)
Experimental: as §1

[16] = system: Proteus mirabilis IFO3849; experiment: MIC, twofold agar dilution; format: cell-based; conditions: Gram -, 10^6 cells/ml, 18 hrs, 37° C., read-out: Minimum inhibitory concentration (MIC)
Experimental: as §1

Salmonella typhi 901 = experiment: MIC, twofold agar dilution; format: cell-based; conditions: Salmonella enterica, 18 h, read-out: Minimum inhibitory concentration (MIC)
Experimental: as §1

[17] = system: Salmonella typhimurium IID 971; experiment: MIC, twofold agar dilution; format: cell-based; conditions: Salmonella enterica; Gram -; 10^6 cells/ml; 18 hrs, 37° C.; read-out: Minimum inhibitory concentration (MIC)
Experimental: as §1

[18] = system: Bacillus subtilis ATCC6633; experiment: MIC, twofold agar dilution; format: cell-based; conditions: Gram +, 10^6 cells/ml, 18 hrs, 37° C., read-out: Minimum inhibitory concentration (MIC)
Experimental: as §1

[19] = system: Streptococcus pyogenes Cook; experiment: MIC, twofold agar dilution; format: cell-based; conditions: Gram +, 10^6 cells/ml, 18 hrs, 37° C., read-out: Minimum inhibitory concentration (MIC)
Experimental: as §1

[20] = system: Serratia marcescens IAM1184; experiment: MIC, twofold agar dilution; format: cell-based; conditions: Gram -, 10^6 cells/ml, 18 hrs, 37° C., read-out: Minimum inhibitory concentration (MIC)
Experimental: as §1

[21] = system: Escherichia coli K-12 C600; experiment: MIC, twofold agar dilution; format: cell-based; conditions: K12C600, Gram -, 10^6 cells/ml, 18 hrs, 37° C., read-out: Minimum inhibitory concentration (MIC)
Experimental: as §1

Proteus vulgalis HX-19 = experiment: MIC, twofold agar dilution; format: cell-based; conditions: Gram -; 10^6 cells/ml; 18 hrs, 37° C.; read-out: Minimum inhibitory concentration (MIC)
Experimental: as §1

[22] = Urinary excretion in rats after oral dosing (bioassay with Escherichia coli NIHJ-JC-2); format: in vivo, SD strain); conditions: rat, male SD rats, 20 mg/Kg per os, fasted 24 hr; for concentration at 6 h: urine 0-6 hr, read-out: Drug Concentration in Urine 0-6 (hr); for dose excreted at 24 h: urine 0-24 hr, read-out: Rate of Urinary Excretion 0-24 (hr); for concentration at 24 h: urine 6-24 hr, read-out: Drug Concentration in Urine 6-24 (hr)
Experimental: Male rats of SD strain, weighing 180-210 g, were used 8 animals at a group. Test compounds suspended in 0.5% carboxymethyl cellulose were administered per os to 24 hr-fasted rats at dose of 20 mg/Kg. Urine was pooled from 0 to 6 hrs. and 6 to 24 hrs, and urinary excretion was measured by bioassay using Escherichia coli NIHJ-JC-2.
The assay method employed was the cup-plate method using
Escherichia coli NIHJ-JC-2. Urine was appropriately diluted with 1/15M phosphate buffer pH7.0, before assay if necessary. Standard calibration lines were made in 1/15M phosphate buffer pH7.0.

in vivo = conditions: mouse, male ddY mice, 10 days
Experimental: Male mice of ddY strain, 4 weeks old, were used with 10 animals at a group. Test compounds suspended in 0.5% carboxymethyl cellulose were administered per os (p.o.) in mice. In the case of intraveneous (i.v.) administration, test compounds were solved in 0.1N-HCl solution and neutralized with 0.1N-NaOH solution.

SMILES | MIC [1] [mg/L] | MIC [2] [mg/L] | MIC [3] [mg/L] | MIC [4] [mg/L] | MIC [5] [mg/L] | MIC (Proteus vulgalis OX-19) [mg/L] | MIC [6] [mg/L] | MIC (Proteus rettgeri IFO3850) [mg/L] | MIC [7] [mg/L] | MIC (Proteus morganii IFO3848) [mg/L] | MIC [8] [mg/L] | MIC [9] [mg/L] | MIC [10] [mg/L] | MIC [11] [mg/L] | MIC [12] [mg/L] | MIC [13] [mg/L] | MIC [14] [mg/L] | MIC [15] [mg/L] | MIC [16] [mg/L] | MIC (Salmonella typhi 901) [mg/L] | also measured
CCn1cc(C(=O)O)c(=O)c2cc(F)c(N3CCNCC3)cc21 [Reference Drug, norfloxacin, reference compound] | 0.1 (≈ 0.313 µM) | 0.39 (≈ 1.22 µM) | 0.39 (≈ 1.22 µM) | 0.05 (≈ 0.157 µM) | 0.2 (≈ 0.626 µM) | 0.05 (≈ 0.157 µM) | 0.025 (≈ 0.0783 µM) | 0.05 (≈ 0.157 µM) | 0.05 (≈ 0.157 µM) | 0.025 (≈ 0.0783 µM) | 0.05 (≈ 0.157 µM) | 0.78 (≈ 2.44 µM) | 0.05 (≈ 0.157 µM) | 0.78 (≈ 2.44 µM) | 6.25 (≈ 19.6 µM) | 6.25 (≈ 19.6 µM) | 0.025 (≈ 0.0783 µM) | 0.025 (≈ 0.0783 µM) | 0.1 (≈ 0.313 µM) | 0.025 (≈ 0.0783 µM) | MIC [17]: 0.05 mg/L (≈ 0.157 µM); MIC [18]: 0.1 mg/L (≈ 0.313 µM); MIC [19]: 1.56 mg/L (≈ 4.89 µM); MIC [20]: 0.1 mg/L (≈ 0.313 µM); MIC [21]: 0.05 mg/L (≈ 0.157 µM); MIC (Proteus vulgalis HX-19): 0.025 mg/L (≈ 0.0783 µM)
CC1CN(c2c(F)cc3c(=O)c(C(=O)O)cn(CCF)c3c2F)CCN1 (centres unmarked) [Example 16, 6,8-Difluoro-1-(2-fluoroethyl)-1,4-dihydro-7-(3-methyl-1-piperazinyl)-4-oxoquinoline-3-carboxylic acid] | 0.2 (≈ 0.542 µM) | 1.56 (≈ 4.22 µM) | 0.78 (≈ 2.11 µM) | 0.1 (≈ 0.271 µM) | 0.38 (≈ 1.03 µM) | 0.2 (≈ 0.542 µM) | 0.023 (≈ 0.0623 µM) | 0.2 (≈ 0.542 µM) | 0.2 (≈ 0.542 µM) | 0.05 (≈ 0.135 µM) | 0.1 (≈ 0.271 µM) | 0.78 (≈ 2.11 µM) | 0.2 (≈ 0.542 µM) | 0.38 (≈ 1.03 µM) | 6.25 (≈ 16.9 µM) | 1.56 (≈ 4.22 µM) | 0.1 (≈ 0.271 µM) | 0.05 (≈ 0.135 µM) | 0.39 (≈ 1.06 µM) | 0.1 (≈ 0.271 µM) | concentration at 6 h [22]: 344 µg/mL; dose excreted at 24 h [22]: 41%; concentration at 24 h [22]: 46 µg/mL; MIC [17]: 0.2 mg/L (≈ 0.542 µM); MIC [18]: 0.2 mg/L (≈ 0.542 µM); MIC [19]: 3.13 mg/L (≈ 8.47 µM); MIC [20]: 0.2 mg/L (≈ 0.542 µM); MIC [21]: 0.2 mg/L (≈ 0.542 µM); MIC (Proteus vulgalis HX-19): 0.05 mg/L (≈ 0.135 µM)
CCn1cc(C(=O)O)c(=O)c2cc(F)c(N3CCNC(C)C3)cc21 (centres unmarked) [Example 1, 1-Ethyl-6-fluoro-1,4-dihydro-7-(3-methyl-1-piperazinyl)-4-oxoquinoline-3-carboxylic acid] | 0.1 (≈ 0.3 µM) | 0.78 (≈ 2.34 µM) | 0.39 (≈ 1.17 µM) | 0.1 (≈ 0.3 µM) | 0.2 (≈ 0.6 µM) | 0.05 (≈ 0.15 µM) | 0.025 (≈ 0.075 µM) | 0.1 (≈ 0.3 µM) | 0.1 (≈ 0.3 µM) | 0.025 (≈ 0.075 µM) | 0.1 (≈ 0.3 µM) | 0.78 (≈ 2.34 µM) | 0.1 (≈ 0.3 µM) | 0.39 (≈ 1.17 µM) | 25 (≈ 75 µM) | 0.39 (≈ 1.17 µM) | 0.025 (≈ 0.075 µM) | 0.0125 (≈ 0.0375 µM) | 0.39 (≈ 1.17 µM) | 0.05 (≈ 0.15 µM) | concentration at 6 h [22]: 514 µg/mL; dose excreted at 24 h [22]: 30%; concentration at 24 h [22]: 28 µg/mL; LD50 at 240 h (in vivo; iv, i.v., read-out: LD50 i.v. (95% Confidence Limit)): 348 mg/kg; LD50 at 240 h (in vivo; po, p.o., read-out: LD50 p.o.): > 4000 mg/kg; MIC [17]: 0.1 mg/L (≈ 0.3 µM); MIC [18]: 0.1 mg/L (≈ 0.3 µM); MIC [19]: 3.13 mg/L (≈ 9.39 µM); MIC [20]: 0.2 mg/L (≈ 0.6 µM); MIC [21]: 0.1 mg/L (≈ 0.3 µM); MIC (Proteus vulgalis HX-19): 0.025 mg/L (≈ 0.075 µM)
